Consider 81 compounds from PubChem BioAssay AID1645867 (Buhrlage Lab, Dana-Farber Cancer Institute and Novartis …, 2021).

The IC50 is the concentration that inhibits the measured activity by half. As usually defined, the pIC50 is the negative decadic logarithm of the IC50, by convention in mol/L.

pIC50: −log10 of the molar value. Active and inactive are the calls of the source. The rule behind the calls is not given here. Bounds are passed on as bounds.

The test deals with Ubiquitin carboxyl-terminal hydrolase isozyme L1 (Homo sapiens) (UniProt P09936). As to the kind of experiment: UCH-L1 deubiquitylase inhibitors, biochemical concentration-response, hit retest (AID 1645867). As to conditions: recombinant UCHL1 deubiquitinase activity assay.
Ubiquitin carboxyl-terminal hydrolase isozyme L1 (Homo sapiens), sequence (P09936 whole entry, looked up): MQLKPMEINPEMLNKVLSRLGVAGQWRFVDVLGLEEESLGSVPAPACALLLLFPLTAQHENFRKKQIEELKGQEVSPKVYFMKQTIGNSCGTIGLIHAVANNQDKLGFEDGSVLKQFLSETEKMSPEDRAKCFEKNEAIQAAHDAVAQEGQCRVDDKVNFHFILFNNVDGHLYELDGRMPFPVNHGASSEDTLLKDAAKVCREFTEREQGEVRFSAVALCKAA
With `O=C(O)c1ccc(Cl)c(NC(=O)C2COc3ccccc3O2)c1` (stereo unspecified), the IC50 is > 25 µM (inactive).

With `O=C(NC1CC1)c1ccc(OCC2CCCN(C(=O)c3ccccc3)C2)cc1` (stereo unspecified), the IC50 is > 25 µM (inactive).

Consider `COc1cc(OC)c(NC(=O)c2cc(-c3ccccn3)n[nH]2)cc1Cl`, for which the IC50 is > 25 µM (inactive).

For `O=C(CN1CCOCC1)Nc1ccc(NC(=O)c2ccc(Cl)cc2)cc1`, the IC50 was > 25 µM (inactive).

Turning to `O=C(Nc1ccc(F)cc1)N1C[C@@H]2c3nccn3-c3ccccc3[C@@H]2C1`, the IC50 was > 25 µM (inactive).

Consider `O=C(c1ccccc1F)c1cc(Cl)ccc1NC(=O)C1CCCO1` (stereo unspecified), for which the IC50 was > 25 µM (inactive).

Regarding `Cc1cc(C)cc(NC(=O)C2C3C=CC4(O3)C2C(=O)N(C2CCCCC2)C4C(=O)NC2CCCCC2)c1` (stereo unspecified), the IC50 was > 25 µM (inactive).

In the case of `O=C(CSc1cn(Cc2ccccc2Cl)c2ccccc12)N1CCOCC1`, the IC50 was > 25 µM (inactive).

In the case of `COc1cccc2c1NC(=O)C21CCN(C(=O)Nc2cccc3ccccc23)CC1`, the IC50 was > 25 µM (inactive).

Turning to `CCOc1ccc(-n2ccnc(SCC(=O)Nc3ccccc3F)c2=O)cc1`, the IC50 is > 25 µM (inactive).

As for `CCc1[nH]c(=O)cc2cc(OC)c(OC)cc12`, the pIC50 was 4.63.

Take `Cc1nc(C(=O)NC2(O)C(=O)c3ccccc3C2=O)cs1`: the negative-log IC50 (pIC50) was 4.68.

In the case of `O=C(Cn1nnc2ccccc21)Nc1nc(-c2ccc3c(c2)CCN3C(=O)c2ccccc2F)cs1`, the IC50 is > 25 µM (inactive).

`O=C1CC(c2nc3ccccc3n2CCOc2ccccc2)CN1Cc1ccccc1` (stereo unspecified): the IC50 was > 25 µM (inactive).

In the case of `CC(C)c1ccc(C2CC(=O)c3cn[nH]c3C2)cc1` (stereo unspecified), the IC50 was > 25 µM (inactive).

Turning to `O=[N+]([O-])c1ccc(S(=O)(=O)CC2CSc3nc4ccccc4n32)cc1` (stereo unspecified), the IC50 is > 25 µM (inactive).

For the compound `O=C(/C=C/c1ccc(Cl)cc1)N(Cc1ccccc1)C1CCS(=O)(=O)C1` (stereo unspecified), the IC50 was > 25 µM (inactive).

On to `Cc1ccccc1NC(=O)Nc1ccccc1OCc1cc(=O)n2cccc(C)c2n1`, for which the IC50 was > 25 µM (inactive).

With `Cc1cccc(-c2nc(NC(=O)COc3ccc(F)cc3)no2)c1`, the IC50 is > 25 µM (inactive).

Consider `Cc1cccc(NC(=O)Cn2cnc(-c3noc(-c4ccccc4)n3)c2)c1C`, for which the IC50 is > 25 µM (inactive).

As for `Nc1c(-c2nc(-c3ccccc3Cl)no2)nnn1-c1ccc(Cl)cc1`, the IC50 is > 25 µM (inactive).

As for `O=C(COc1ccccc1)Nc1ccc(-c2nc3cnccc3o2)c(O)c1`, the IC50 is > 25 µM (inactive).

Consider `COc1cn(CC(=O)Nc2ccc(Cl)cc2)c(CSc2ccccc2)cc1=O`, for which the IC50 is > 25 µM (inactive).

With `O=C(NC1CC2(CCOCC2)Oc2ccccc21)c1cnccn1` (stereo unspecified), the IC50 was > 25 µM (inactive).

For `CCC(=O)N1CCCC1c1nc2ccccc2n1Cc1ccc(F)cc1` (stereo unspecified), the IC50 is > 25 µM (inactive).

`Cn1c(=O)c(N2CCOCC2)nc2c(OCc3ccccc3)nc(N)nc21`: the IC50 was > 25 µM (inactive).

As for `CCc1ccc(-n2c(C)cc(/C=C3\C(=N)N4N=CSC4=NC3=O)c2C)cc1`, the IC50 was > 25 µM (inactive).

In the case of `CC(OC(=O)c1cccc(N(C)C)c1)C(=O)Nc1ncc(Cl)cc1Cl` (stereo unspecified), the IC50 was > 25 µM (inactive).

For `N#Cc1ccc(NC(=O)Nc2cccn(Cc3ccccc3Br)c2=O)cc1`, the IC50 was > 25 µM (inactive).

`COc1cc(O)cc2c1C(=O)OC(C)CCCCCCC2` (stereo unspecified): the IC50 was > 25 µM (inactive).

For `O=C(CSc1ccc2nnc(-c3cccc(F)c3)n2n1)N1CCCc2ccccc21`, the IC50 was > 25 µM (inactive).

Turning to `COc1cc(C2CC(=O)Nc3nc(-c4ccccc4)[nH]c(=O)c32)cc(OC)c1O` (stereo unspecified), the IC50 is > 25 µM (inactive).

As to `COC(=O)C1(Cc2ccc(O)cc2)OC(=O)C(O)=C1c1ccc(O)cc1` (stereo unspecified), the negative-log IC50 (pIC50) was 4.72.

Take `Cc1ncc(CO)c2c1Oc1nc(-c3cccc(Cl)c3)nc(SCC(=O)N3CCCCC3)c1C2`: the IC50 was > 25 µM (inactive).

For the compound `Cc1cc(C)c(NC(=O)Cn2c(SCc3cccc(F)c3)nc3cccnc32)c(C)c1`, the IC50 is > 25 µM (inactive).

Turning to `Cc1ccc(-n2cc(-c3noc(C(=O)Nc4ccc(F)cc4C)n3)nn2)cc1`, the IC50 was > 25 µM (inactive).

For `Cc1cccc(NC(=O)Cn2cccc(S(=O)(=O)N3CCC(C)CC3)c2=O)c1C`, the IC50 is > 25 µM (inactive).

As for `CO/C1=C\C(C)=C\[C@@H](C)[C@@H](O)[C@H](C)C/C(C)=C/C=C/[C@H](OC)[C@@H]([C@@H](C)[C@@H](O)[C@H](C)[C@@]2(O)C[C@@H](OC(=O)/C=C/C(=O)NC3=C(O)CCC3=O)[C@H](C)[C@@H](C(C)C)O2)OC1=O`, the IC50 was > 25 µM (inactive).

Take `Cc1nc(C2(NC(=O)Nc3ccc(F)cc3F)CCCC2)no1`: the IC50 was > 25 µM (inactive).

Regarding `Cc1nc(C2COCCN2C(=O)c2cc(C(C)(C)C)[nH]n2)cc(=O)[nH]1` (stereo unspecified), the IC50 was > 25 µM (inactive).

In the case of `O=C(CSc1nnc(C2CC2)n1-c1ccccc1)c1ccc(F)c(F)c1`, the IC50 is > 25 µM (inactive).

In the case of `CC(CCc1ccccc1)NCc1c(C(=O)O)n(Cc2ccccc2)c2ccccc12` (stereo unspecified), the IC50 was > 25 µM (inactive).

Turning to `O=C1CSC(c2ccc(F)cc2)c2c(n(C3CCCCCC3)[nH]c2=O)N1` (stereo unspecified), the IC50 was > 25 µM (inactive).

For the compound `Cc1ccc(-n2c(=O)[nH]c3c(C(N)=O)nc(-c4ccc(OCc5ccccc5)cc4)nc32)cc1`, the IC50 is > 25 µM (inactive).

With `COc1ccc(-c2nc(CNC(=O)c3ccccc3C)cs2)cc1`, the IC50 is > 25 µM (inactive).

As for `CSc1cccc(NC(=O)C2C3C=CC4(O3)C2C(=O)N(C2CCCCCC2)C4C(=O)NC2CCCCC2)c1` (stereo unspecified), the IC50 was > 25 µM (inactive).

With `Nc1ccc(F)c(NS(=O)(=O)c2ccccc2)c1`, the IC50 was > 25 µM (inactive).

Regarding `O=C(C1CCCC1)N1CCC(c2nc3c(nnn3Cc3ccccc3Cl)c(=O)[nH]2)CC1`, the IC50 was > 25 µM (inactive).

As to `O=C(COc1ccc(N2CC(C(=O)NCc3ccccc3)CC2=O)cc1)Nc1ccccc1Cl` (stereo unspecified), the IC50 is > 25 µM (inactive).

Regarding `Cc1cc(C(=O)NC2(O)C(=O)c3ccccc3C2=O)n(C)n1`, the pIC50 is 4.69.

`Cn1c(CNS(=O)(=O)c2ccc(Br)cc2)nnc1SCc1ccc(Cl)c(Cl)c1`: the IC50 is > 25 µM (inactive).

In the case of `Cc1nn(-c2ccccc2)c2c1C1(C(=O)Nc3ccccc31)N1C(=N2)Sc2ccccc21` (stereo unspecified), the IC50 was > 25 µM (inactive).

For `O=C(C1CCCCC1)N1CCC(c2nc3c(nnn3Cc3cccc(F)c3)c(=O)[nH]2)CC1`, the IC50 was > 25 µM (inactive).

With `O=S1(=O)CCN(CC2CCCO2)c2c(Oc3ccccc3)nc(F)c(Cl)c21` (stereo unspecified), the IC50 is > 25 µM (inactive).

In the case of `COc1ccc(NC(=O)Cn2c(=O)n(CCC(=O)NCc3ccccc3)c(=O)c3sccc32)cc1Cl`, the IC50 was > 25 µM (inactive).

In the case of `Oc1cccc2c(-c3ccc(O)c4c(O)cccc34)ccc(O)c12`, the pIC50 is 4.97.

For `COc1ccccc1Nc1ncc(C(=O)NCCc2ccc(Cl)cc2)c2ccccc12`, the IC50 is > 25 µM (inactive).

`Cc1nc(-c2ccccn2)sc1C(=O)/C=C/c1ccccc1`: the IC50 was > 25 µM (inactive).

In the case of `CSc1ncccc1C(=O)OCc1ccccc1`, the IC50 is > 25 µM (inactive).

For the compound `O=C(Nc1nc2c(s1)CN(C(=O)c1cc(-c3ccco3)on1)CC2)C1CCCO1` (stereo unspecified), the IC50 was > 25 µM (inactive).

For the compound `O=C(CSc1nnc(-c2cccnc2)n1-c1ccccc1)c1cccc([N+](=O)[O-])c1`, the IC50 was > 25 µM (inactive).

In the case of `Cn1c2ccccc2c(=O)c2c(=O)n(-c3cccc(Cl)c3)c(-c3cccs3)nc21`, the IC50 is > 25 µM (inactive).

Take `COc1ccc(OC)c(-c2cn3ccn(-c4ccc(F)c(Cl)c4)c(=O)c3n2)c1`: the IC50 was > 25 µM (inactive).

As for `COc1ccc(NC(=O)Cn2cc(C(=O)c3ccc(Cl)cc3)c(=O)c3cc(F)ccc32)cc1`, the IC50 is > 25 µM (inactive).

`CNc1nc2c(c(=O)n1C)CN(C(=O)Nc1cccc3ccccc13)CC2`: the IC50 is > 25 µM (inactive).

As for `O=C(OCC(=O)N1CCOCC1)c1ccccc1OCc1ccccc1Cl`, the IC50 was > 25 µM (inactive).

As for `CC1O[C@@H](c2ccc3c(c2O)C(=O)C2=C(C3=O)[C@@]3(O)C(=O)C(O)[C@](C)(O)C[C@@]3(O)C=C2)CC[C@@H]1OC(=O)/C=C/C=C/C=C/[C@@H]1O[C@@](C)(C(=O)O)O[C@H]1C` (stereo partly specified), the pIC50 is 5.34.

With `Cc1ccc2c(c1)N(C)C(=O)c1cc(NC(=O)c3ccc(F)cc3)ccc1O2`, the IC50 was > 25 µM (inactive).

Regarding `Cc1cc(C)c(NC(=O)Cn2c(=O)n(CCC(=O)NCc3ccc4c(c3)OCO4)c(=O)c3sccc32)c(C)c1`, the IC50 is > 25 µM (inactive).

`COc1ccc(OC)c2c(C)cc(N3CC(C)CC(C)C3)nc12` (stereo unspecified): the IC50 is > 25 µM (inactive).

Turning to `O=c1c2cc(-c3ccccc3)nn2ccn1Cc1noc(CN2CCCCC2)n1`, the IC50 was > 25 µM (inactive).

As to `Cc1ccccc1NC(=O)Cn1c(=O)n(-c2ccc(CC(=O)NCCc3ccccc3)cc2)c(=O)c2sccc21`, the IC50 is > 25 µM (inactive).

Turning to `O=C(CCCCn1c(=O)[nH]c2ccccc2c1=O)Nc1cccc(Cl)c1`, the IC50 is > 25 µM (inactive).

`Cc1nn(-c2ccccc2)c(C)c1S(=O)(=O)N1CCN(c2ccccn2)CC1`: the IC50 was > 25 µM (inactive).

`COc1ccc(-c2noc(CN3CCCC3c3cnn(C)c3)n2)cc1` (stereo unspecified): the IC50 was > 25 µM (inactive).

Take `CC(NC(=O)c1ccccc1)c1nc2ccccc2n1CC(=O)Nc1ccc2c(c1)OCO2` (stereo unspecified): the IC50 was > 25 µM (inactive).

Turning to `Nc1cccc(C(=O)CC2(O)C(=O)N(Cc3ccc(Cl)cc3)c3ccccc32)c1` (stereo unspecified), the IC50 was > 25 µM (inactive).

`O=C1CC(c2ccco2)Cc2[nH]c(=O)c(-c3nc(-c4ccc(Cl)cc4)cs3)cc21` (stereo unspecified): the IC50 was > 25 µM (inactive).

`COc1ccccc1OCCSc1nnc(-c2ccc3c(c2)OCCCO3)n1C`: the IC50 is > 25 µM (inactive).

For `O=C(CCc1nc2sc3c(c2c(=O)[nH]1)CCCCC3)Nc1ccc(F)cc1F`, the IC50 was > 25 µM (inactive).

For the compound `O=C(Nc1ccccc1-c1nc2ccccc2[nH]1)c1sc2ccccc2c1Cl`, the IC50 is > 25 µM (inactive).
